Here are results for 30 molecules from patent US11319315B2, “Cyclohexyl acid triazole azoles as LPA antagonists” (BRISTOL-MYERS SQUIBB COMPANY, priority 2017, dated 2022).

Molecules are shown by their SMILES.

T1 sequence (Q92633 whole entry): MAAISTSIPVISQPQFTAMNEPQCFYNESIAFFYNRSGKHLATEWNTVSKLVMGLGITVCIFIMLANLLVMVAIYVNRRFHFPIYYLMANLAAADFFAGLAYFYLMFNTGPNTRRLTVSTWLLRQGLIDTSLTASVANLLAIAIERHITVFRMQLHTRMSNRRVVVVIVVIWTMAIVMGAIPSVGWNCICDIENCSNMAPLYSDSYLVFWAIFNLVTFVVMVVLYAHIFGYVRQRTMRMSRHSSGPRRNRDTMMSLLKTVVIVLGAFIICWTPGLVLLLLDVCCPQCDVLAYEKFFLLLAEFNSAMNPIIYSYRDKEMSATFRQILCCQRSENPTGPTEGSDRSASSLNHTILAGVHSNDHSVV

The first test has as its target T1, human LPA1 (Homo sapiens, UniProt Q92633).
T1 construct: expressed in transfected cells; host or cells: Chinese hamster ovary (CHO) cells
Briefly: LPA1 functional antagonist assay (LPA-induced calcium flux in CHO cells overexpressing human LPA1). Format: cell-based. The settings on record: inhibition of calcium flux induced by 10 nM LPA, CHO cells overexpressing human LPA1; read-out: hLPA1 IC50. As for the experimental part:
The effectiveness of compounds of the present invention as LPA1 inhibitors can be determined in an LPA1 functional antagonist assay as follows:
Chinese hamster ovary cells overexpressing human LPA1 were plated overnight (15,000 cells/well) in poly-D-lysine coated 384-well microplates (Greiner bio-one, Cat #781946) in DMEM/F12 medium (Gibco, Cat #11039). Following overnight culture, cells were loaded with calcium indicator dye (AAT Bioquest Inc, Cat #34601) for 30 minutes at 37° C. The cells were then equilibrated to room temperature for 30 minutes before the assay. Test compounds solubilized in DMSO were transferred to 384 well non-binding surface plates (Corning, Cat #3575) using the Labcyte Echo acoustic dispense and diluted with assay buffer [IX HBSS with calcium/magnesium (Gibco Cat #14025-092), 20 mM HEPES (Gibco Cat #15630-080) and 0.1% fatty acid free BSA (Sigma Cat #A9205)] to a final concentration of 0.5% DMSO. Diluted compounds were added to the cells by FDSS6000 (Hamamatsu) at final concentrations ranging from 0.08 nM to 5 μM. and were then incubated for 20 min at room temperature at which time LPA (Avanti Polar Lipids Cat #857130C) was added at final concentrations of 10 nM to stimulate the cells. The compound IC50 value was defined as the concentration of test compound which inhibited 50% of the calcium flux induced by LPA alone. IC50 values were determined by fitting data to a 4-parameter logistic equation (GraphPad Prism, San Diego Calif.).
Turning to `Cc1nc(-c2nnn(C)c2CNc2noc(C3CC(C)C3)n2)ccc1O[C@H]1CCC[C@H](C(=O)O)C1` (stereo partly drawn) [Example 198], the 50% inhibitory concentration (IC50) was found to be 28 nM.

For `CCOC(C)c1nc(NCc2c(-c3ccc(O[C@H]4CCC[C@H](C(=O)O)C4)c(C)n3)nnn2C)no1` (mixture of isomers) [Example 222, (1S,3S)-3-((6-(5-(((5-(1-ethoxyethyl)-1,2,4-oxadiazol-3-yl)amino)methyl)-1-methyl-1H-1,2,3-triazol-4-yl)-2-methylpyridin-3-yl)oxy)cyclohexane-1-carboxylic acid], the IC50 worked out at 92 nM.

`Cc1nc(-c2nnn(C)c2CNc2noc(C3CC(C)C3)n2)ccc1O[C@H]1CCC[C@H](C(=O)O)C1` (stereo partly drawn) [Example 199]: the IC50 worked out at 33 nM.

Regarding `Cc1nc(-c2nnn(C)c2CNc2ncc(C(C)C)o2)ccc1O[C@H]1CCC[C@H](C(=O)O)C1` [Example 139], the IC50 was 38 nM.

Consider `Cc1nc(-c2nnn(C)c2CNc2noc(CC3CC3(F)F)n2)ccc1O[C@H]1CCC[C@H](C(=O)O)C1` (stereo partly drawn) [Example 195], for which the concentration for half-maximal inhibition (IC50) was found to be 25 nM.

For the molecule `Cc1nc(-c2nnn(C)c2CNc2nc(C3CCC3)cs2)ccc1O[C@H]1CCC[C@H](C(=O)O)C1` [Example 13], the IC50 turned out to be 13 nM.

In the case of `Cc1nc(-c2nnn(C)c2CNc2noc([C@H]3C[C@](C)(F)C3)n2)ccc1O[C@H]1CCC[C@H](C(=O)O)C1` [Example 192], the IC50 amounted to 52 nM.

As to `Cc1nc(-c2nnn(C)c2Cc2noc(-c3ccccc3)n2)ccc1O[C@H]1CCC[C@H](C(=O)O)C1` [Example 238, (1S,3S)-3-((2-methyl-6-(1-methyl-5-((5-phenyl-1,2,4-oxadiazol-3-yl)methyl)-1H-1,2,3-triazol-4-yl)pyridin-3-yl)oxy)cyclohexane-1-carboxylic acid], the IC50 is 161 nM.

Consider `Cc1nc(-c2nnn(C)c2Cn2cc(C3(O)CCCCC3)nn2)ccc1O[C@H]1CCC[C@H](C(=O)O)C1` [Example 89], for which the IC50 came to 3270 nM.

Turning to `CCCc1nnnn1Cc1c(-c2ccc(O[C@H]3CCC[C@H](C(=O)O)C3)cn2)nnn1C` [Example 253, (1S,3S)-3-((6-(1-methyl-5-((5-propyl-1H-tetrazol-1-yl)methyl)-1H-1,2,3-triazol-4-yl)pyridin-3-yl)oxy)cyclohexane-1-carboxylic acid], the IC50 worked out at 264 nM.

In the case of `Cc1nc(-c2nnn(C)c2CNc2noc(C(C)C3CC3)n2)ccc1O[C@H]1CCC[C@H](C(=O)O)C1` (stereo partly drawn) [Example 185], the IC50 is 24 nM.

Consider `Cc1nc(-c2nnn(C)c2CNc2noc(C(C)(C)C)n2)ccc1O[C@H]1CCC[C@H](C(=O)O)C1` [Example 155], for which the IC50 amounted to 85 nM.

As for `Cc1nc(-c2nnn(C)c2CNc2nc(-c3ccccn3)ns2)ccc1O[C@H]1CCC[C@H](C(=O)O)C1` [Example 101], the concentration for half-maximal inhibition (IC50) worked out at 483 nM.

On to `COc1cccc(Cc2noc(Cc3c(-c4ccc(O[C@H]5CCC[C@H](C(=O)O)C5)c(C)n4)nnn3C)n2)c1` [Example 242, (1S,3S)-3-((6-(5-((3-(3-methoxy-benzyl)-1,2,4-oxadiazol-5-yl)methyl)-1-methyl-1H-1,2,3-triazol-4-yl)-2-methylpyridin-3-yl)oxy)cyclohexane-1-carboxylic acid], for which the IC50 amounted to 2020 nM.

On to `Cc1nc(-c2nnn(C)c2Cn2nnnc2-c2ccc(F)cc2)ccc1O[C@H]1CCC[C@H](C(=O)O)C1` [Example 323, (1S,3S)-3-((6-(5-((5-(4-fluoro-phenyl)-1H-tetrazol-1-yl)methyl)-1-methyl-1H-1,2,3-triazol-4-yl)-2-methylpyridin-3-yl)oxy)cyclo-hexane-1-carboxylic acid], for which the IC50 amounted to 414 nM.

Regarding `Cc1nc(-c2nnn(C)c2Cn2nnc(OCC3CC(F)(F)C3)n2)ccc1O[C@H]1CCC[C@@H](C(=O)O)C1` [Example 334, (1R,3S)-3-({6-[5-({5-[(3,3-difluoro-cyclobutyl)methoxy]-2H-1,2,3,4-tetrazol-2-yl}methyl)-1-methyl-1H-1,2,3-triazol-4-yl]-2-methylpyridin-3-yl}oxy)cyclohexane-1-carboxylic acid], the IC50 was 258 nM.

Take `Cc1nc(-c2nnn(C)c2Cc2nc(CC(C)C)no2)ccc1O[C@H]1CCC[C@H](C(=O)O)C1` [Example 243, (1S,3S)-3-((6-(5-((3-isobutyl-1,2,4-oxadiazol-5-yl)methyl)-1-methyl-1H-1,2,3-triazol-4-yl)-2-methylpyridin-3-yl)oxy)cyclohexane-1-carboxylic acid]: the 50% inhibitory concentration (IC50) was 58 nM.

With `Cn1nnc(-c2ccc(O[C@H]3CCC[C@H](C(=O)O)C3)cn2)c1CNc1noc(CCC2CC2)n1` [Example 286, (1S,3S)-3-((6-(5-(((5-(2-cyclopropyl-ethyl)-1,2,4-oxadiazol-3-yl)amino)methyl)-1-methyl-1H-1,2,3-triazol-4-yl)pyridin-3-yl)oxy)cyclohexane-1-carboxylic acid], the IC50 was determined as 10 nM.

For `Cc1nc(-c2nnn(C)c2CNc2nc(CC(C)C)no2)ccc1O[C@H]1CCC[C@H](C(=O)O)C1` [Example 157], the IC50 came to 53 nM.

For the molecule `Cc1nc(-c2nnn(C)c2Cn2nnnc2OCC2CC2)ccc1O[C@H]1CCC[C@H](C(=O)O)C1` [Example 351, (1S,3S)-3-{[6-(5-{[5-(cyclopropyl-methoxy)-1H-1,2,3,4-tetrazol-1-yl]methyl}-1-methyl-1H-1,2,3-triazol-4-yl)-2-methylpyridin-3-yl]oxy}cyclohexane-1-carboxylic acid], the IC50 came to 152 nM.

Regarding `Cc1nc(-c2nnn(C)c2CNc2nnc(C(F)(F)F)o2)ccc1O[C@H]1CCC[C@H](C(=O)O)C1` [Example 47], the IC50 was found to be 595 nM.

For `Cc1nc(-c2nnn(C)c2Cn2nnc(OCC3CC3)n2)ccc1O[C@H]1CCC[C@@H](C(=O)O)C1` [Example 339, (1R,3S)-3-{[6-(5-{[5-(cyclopropyl-methoxy)-2H-1,2,3,4-tetrazol-2-yl]methyl}-1-methyl-1H-1,2,3-triazol-4-yl)-2-methylpyridin-3-yl]oxy}cyclohexane-1-carboxylic acid], the IC50 was determined as 192 nM.

Turning to `CCc1nnn(Cc2c(-c3ccc(O[C@H]4CCC[C@H](C(=O)O)C4)c(C)n3)nnn2C)n1` [Example 318, (1S,3S)-3-((6-(5-((5-ethyl-2H-tetrazol-2-yl)methyl)-1-methyl-1H-1,2,3-triazol-4-yl)-2-methylpyridin-3-yl)oxy)cyclo-hexane-1-carboxylic acid], the IC50 came out at 414 nM.

`Cc1nc(-c2nnn(C)c2Cn2ncc(CC(C)C)n2)ccc1O[C@H]1CCC[C@H](C(=O)O)C1` [Example 260, (1 S,3 S)-3-((6-(5-((4-Isobutyl-2H-1,2,3-triazol-2-yl)methyl)-1-methyl-1H-1,2,3-triazol-4-yl)-2-methylpyridin-3-yl)oxy)cyclohexane-1-carboxylic acid]: the IC50 was found to be 35 nM.

Turning to `Cc1nc(-c2nnn(C)c2CNc2nc(-c3ccccc3)no2)ccc1O[C@H]1CCC[C@H](C(=O)O)C1` [Example 61], the IC50 is 26 nM.

With `Cc1nc(-c2nnn(C)c2Cn2nnc(CCC3CC3)n2)ccc1O[C@H]1CCC[C@H](C(=O)O)C1` [Example 296, (1S,3S)-3-{[6-(5-{[5-(2-cyclopropyl-ethyl)-2H-1,2,3,4-tetrazol-2-yl]methyl}-1-methyl-1H-1,2,3-triazol-4-yl)-2-methylpyridin-3-yl]oxy}cyclohexane-1-carboxylic acid], the IC50 was 96 nM.

Take `Cc1nc(-c2nnn(C)c2Cn2nnc(OC3CCCC3)n2)ccc1O[C@H]1CCC[C@H](C(=O)O)C1` [Example 336, (1S,3S)-3-{[6-(5-{[5-(cyclopentyl-oxy)-2H-1,2,3,4-tetrazol-2-yl]methyl}-1-methyl-1H-1,2,3-triazol-4-yl)-2-methylpyridin-3-yl]oxy}cyclohexane-1-carboxylic acid]: the IC50 was found to be 67 nM.

Turning to `Cc1nc(-c2nnn(C)c2CNc2noc(CCC3CC3)n2)c(F)cc1O[C@H]1CCC[C@H](C(=O)O)C1` [Example 279, (1S,3S)-3-((6-(5-(((5-(2-cyclopropyl-ethyl)-1,2,4-oxadiazol-3-yl)amino)methyl)-1-methyl-1H-1,2,3-triazol-4-yl)-5-fluoro-2-methylpyridin-3-yl)oxy)cyclohexane-1-carboxylic acid], the IC50 was determined as 51 nM.

The same test, now with this note: read-out: hLPA1 IC50.
For `Cn1nnc(-c2ncc(O[C@H]3CCC[C@H](C(=O)O)C3)cc2F)c1CNc1noc(CCC2CC2)n1` [Example 409, (1S,3S)-3-((6-(5-(((5-(2-cyclopropylethyl)-1,2,4-oxadiazol-3-yl)amino)methyl)-1-methyl-1H-1,2,3-triazol-4-yl)-5-fluoropyridin-3-yl)oxy)cyclohexane-1-carboxylic acid], the IC50 is 1920 nM.

For `COc1ccc(-n2nnc(NCc3c(-c4ccc(O[C@H]5CCC[C@@H](C(=O)O)C5)c(C)n4)nnn3C)n2)cc1` [Example 379, (1R,3S)-3-((6-(5-(((2-(4-methoxy-phenyl)-2H-tetrazol-5-yl)amino)methyl)-1-methyl-1H-1,2,3-triazol-4-yl)-2-methylpyridin-3-yl)oxy)cyclohexane-1-carboxylic acid], the IC50 stood at 2080 nM.
